Data on 15 compounds can be found in patent US7045528B2, “Benzofused heterozryl amide derivatives of thienopyridines useful as therapeutic agents, pharmaceutical compositions including the same, and methods for their use” (Agouron Pharmaceuticals, Inc., priority 2002, dated 2006).

One assay deals with Huvec. The assay is described as follows: bFGF Huvec proliferation. The class given is cell-based, human.
In another assay the target is T1, PDGFRβ (Homo sapiens, UniProt P09619).
T1 construct: expressed in transfected cells; host or cells: porcine aorta endothelial (PAE)-PDGFRβ cells
T1 sequence (P09619 33-1106): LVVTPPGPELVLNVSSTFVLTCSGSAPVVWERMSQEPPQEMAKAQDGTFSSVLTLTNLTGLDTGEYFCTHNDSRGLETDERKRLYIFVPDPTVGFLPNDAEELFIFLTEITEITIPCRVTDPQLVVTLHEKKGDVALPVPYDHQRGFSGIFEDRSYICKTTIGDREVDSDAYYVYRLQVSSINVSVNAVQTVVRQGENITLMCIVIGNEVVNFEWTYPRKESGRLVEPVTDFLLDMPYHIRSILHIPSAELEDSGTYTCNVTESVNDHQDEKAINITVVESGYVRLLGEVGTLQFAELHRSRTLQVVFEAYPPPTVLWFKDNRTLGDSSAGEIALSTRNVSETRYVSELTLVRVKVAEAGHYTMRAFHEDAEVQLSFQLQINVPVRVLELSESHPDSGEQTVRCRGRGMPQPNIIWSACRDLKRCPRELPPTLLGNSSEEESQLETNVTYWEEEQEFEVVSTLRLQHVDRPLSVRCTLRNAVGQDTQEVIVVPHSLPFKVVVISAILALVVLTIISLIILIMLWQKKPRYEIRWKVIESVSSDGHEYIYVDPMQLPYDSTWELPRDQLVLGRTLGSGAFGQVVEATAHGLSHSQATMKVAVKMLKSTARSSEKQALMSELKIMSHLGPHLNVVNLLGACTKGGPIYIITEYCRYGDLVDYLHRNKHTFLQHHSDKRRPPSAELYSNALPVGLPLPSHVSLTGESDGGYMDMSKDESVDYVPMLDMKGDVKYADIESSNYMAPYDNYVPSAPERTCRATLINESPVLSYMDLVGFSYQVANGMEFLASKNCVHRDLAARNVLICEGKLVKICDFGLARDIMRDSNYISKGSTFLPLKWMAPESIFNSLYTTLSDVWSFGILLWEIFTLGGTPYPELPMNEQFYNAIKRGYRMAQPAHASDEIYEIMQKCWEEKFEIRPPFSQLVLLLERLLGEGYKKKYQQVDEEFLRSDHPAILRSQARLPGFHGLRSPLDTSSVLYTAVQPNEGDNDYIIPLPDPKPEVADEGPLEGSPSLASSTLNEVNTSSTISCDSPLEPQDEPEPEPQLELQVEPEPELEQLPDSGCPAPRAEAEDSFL
The assay is described as follows: PAE-PDGFRβ phosphorylation in PAE-PDGFRB cells assay. The class given is cell-based. Conditions: PAE cells overexpressing human PDGFRβ, PDGF-BB stimulated; read-out: PAE PDGFR autophos IC50 (nM) AVG. On the procedure: PAE-PDGFRβ Phosphorylation in PAE-PDGFRB Cells Assay
This assay determines the ability of a test compound to inhibit the autophosphorylation of PDGFRβ in porcine aorta endothelial (PAE)-PDGFRβ cells. PAE cells that overexpress human PDGFRβ were used in this assay. The cells were cultured in Ham's F12 media supplemented with 10% fetal bovine serum (FBS) and 400 ug/ml G418. Twenty thousands cells were seeded in each well of a 96-well plate in 50 μL of growth media and allowed to attach for 6 hours at 37° C. Cells were then exposed to the starvation media (Ham's F12 media supplemented with 0.1% FBS) for 16 hours. After the starvation period was over, 10 μL of test agent in 5% DMSO in starvation media were added to the test wells and 10 μL of the vehicle (5% DMSO in starvation media) were added into the control wells. The final DMSO concentration in each well was 0.5%. Plates were incubated at 37° C. for 1 hour and the cells were then stimulated with 1 μg/mL PDGF-BB (R & D System) in the presence of 2 mM Na3VO4 for 8 minutes. The cells were washed once with 1 mm Na3VO4 in HBSS and lysed by adding 50 μL per well of lysis buffer. One hundred μL of dilution buffer were then added to each well and the diluted cell lysate was transferred to a 96-well goat ant-rabbit coated plate (Pierce), which was pre-coated with Rabbit anti Human PDGFRβ antibody (Santa Cruz). The plates were incubated at room temperature for 2 hours and washed seven times with 1% Tween 20 in PBS. HRP-PY20 (Santa Cruz) was diluted and added to the plate for a 30-minute incubation. Plates were then washed again and TMB peroxidase substrate (Kirkegaard & Perry) was added for a 10-minute incubation. One hundred μL of 0.09 N H2SO4 was added into each well of the 96-well plate to stop the reaction. Phosphorylation status was assessed by spectrophotometer reading at 450 nm. IC50 values were calculated by curve fitting using a four-parameter analysis.

Assay [1] has as its target T2, unphosphorylated VEGF-R2Δ50 (FLVK) (Homo sapiens, UniProt P35968, DEL940-989/E990V).
T2 construct: VEGF-R2Δ50 contains residues 806–939 and 990–1171; made in house; host or cells: baculovirus/insect cell system
In words: VEGF-R2 coupled spectrophotometric assay, unphosphorylated VEGF-R2Δ50 (FLVK). Type of assay: biochemical. Conditions: unphosphorylated VEGF-R2Δ50; for inhibition at 0.05 µM: read-out: FLVK (% inh @ 50 nM). In outline: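 Ki obtained by Morrison-equation fitting of activity at varied compound levels; reaction started with 5–40 nM enzyme. Non-autophosphorylated kinase construct (insect cell-expressed) with 3 mM ATP, 20 mM poly(E4Y1), 60 mM MgCl2 plus 2 mM MnCl2, pH 7.5 HEPES; NADH loss at 340 nm via PK/LDH coupling.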

The subject of assay [2] is human umbilical vein endothelial cells (HUVEC). The assay is described as follows: HUVEC+VEGF proliferation assay. The class given is cell-based. Conditions: VEGF 6 ng/mL, 72 h, MTT. The procedure: HUVEC+VEGF Proliferation Assay
This assay determines the ability of a test compound to inhibit the growth factor-stimulated proliferation of human umbilical vein endothelial cells (“HUVEC”). HUVEC cells (passage 3–4; Clonetics, Corp.) were thawed into EGM2 culture medium (Clonetics Corp) in T75 flasks. Fresh EGM2 medium was added to the flasks 24 hours later. Four or five days later, cells were exposed to another culture medium (F12K medium supplemented with 10% fetal bovine serum (FBS), 60 μg/mL endothelial cell growth supplement (ECGS), and 0.1 mg/mL heparin). Exponentially-growing HUVEC cells were used in experiments thereafter. Ten to twelve thousand HUVEC cells were plated in 96-well dishes in 100 μl of rich, culture medium (described above). The cells were allowed to attach for 24 hours in this medium. The medium was then removed by aspiration and 105 μl of starvation media (F12K+1% FBS) was added to each well. After 24 hours, 15 μl of test agent dissolved in 1% DMSO in starvation medium or this vehicle alone was added into each treatment well; the final DMSO concentration was 0.1%. One hour later, 30 μl of VEGF (30 ng/mL) in starvation media was added to all wells except those containing untreated controls; the final VEGF concentration was 6 ng/mL. Cellular proliferation was quantified 72 hours later by MTT dye reduction, at which time cells were exposed for 4 hours MTT (Promega Corp.). Dye reduction was stopped by addition of a stop solution (Promega Corp.) and absorbance at 595 nm was determined on a 96-well spectrophotometer plate reader.

T2 sequence (P35968 with tags, fused parts or gaps DEL940-989/E990V limits assumed): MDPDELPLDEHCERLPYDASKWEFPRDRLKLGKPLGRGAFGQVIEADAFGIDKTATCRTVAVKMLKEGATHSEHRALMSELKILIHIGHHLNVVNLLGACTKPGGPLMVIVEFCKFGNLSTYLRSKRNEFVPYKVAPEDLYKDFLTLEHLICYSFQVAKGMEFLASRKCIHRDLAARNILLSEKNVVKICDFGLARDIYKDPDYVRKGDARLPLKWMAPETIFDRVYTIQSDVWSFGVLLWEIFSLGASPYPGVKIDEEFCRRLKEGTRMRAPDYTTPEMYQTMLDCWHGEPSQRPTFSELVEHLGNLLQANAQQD

As to `CCc1oc2cc(Oc3ccnc4cc(C(=O)N5CCC[C@H]5CO)sc34)ccc2c1C(=O)NC` [Example 97, 2-ethyl-6(2-[(S)-2-(hydroxymethyl)pyrrolidine-1-carbonyl]thieno[3,2-b]pyridin-7-yloxy)-benzofuran-3-carboxylic acid methylamide], the IC50 was determined as 223 nM in the assay on Huvec (Homo sapiens, HUVEC); 293 nM on PDGFRβ; 10 nM in assay [2] (Homo sapiens, HUVEC). In addition, the inhibition at 0.05 µM in assay [1] (50 nM compound) worked out at 70%. In assay [1], this compound registered a Ki of 4.84 nM.

Turning to “Methoxy-azetidine-1-carbonyl)-thieno[3,2-b]pyridin-7-yloxy]-2-methyl-benzofuran-3-carboxylic acid methylamide [Example 78]”, the figures for the 50% inhibitory concentration (IC50) (in the assay with Huvec (bFGF); on PDGFRβ; in assay [2]) were 30 nM, 14.8 nM and 0.507 nM, respectively. For the same compound, the “FLVK (% inh @ 50 nM)” value in assay [1] (50 nM compound) was found to be 93%. The compound further returned an inhibition constant Ki in assay [1] of 0.221 nM.

`Cc1oc2cc(Oc3ccnc4cc(-c5nccn5C)sc34)ccc2c1C(=O)NCC(C)C` [Example 84, 2-Methyl-6-[2-(1-methyl-1H-imidazol-2-yl)-thieno[3,2-b]pyridin-7-yloxy]-benzofuran-3-carboxylic acid isobutyl amide]: the IC50 with Huvec (Homo sapiens, HUVEC) turned out to be 429 nM; on PDGFRβ, 12.4 nM; in assay [2] (Homo sapiens, HUVEC), 0.322 nM. In addition, the inhibition at 0.05 µM in assay [1] (50 nM compound) was 94%. Moreover, the Ki in assay [1] came to 0.58 nM.

Consider `CCCNC(=O)c1c(C)oc2cc(Oc3ccnc4cc(C(=O)N5CC[C@@H](OC)C5)sc34)ccc12` [Example 92, 6-[2-(3-Methoxy-pyrrolidine-1-carbonyl)-thieno[3,2-b]pyridin-7-yloxy]-2-methyl-benzofuran-3-carboxylic acid propyl amide], for which the IC50 in the assay on Huvec (Homo sapiens, HUVEC) is 13 nM; at PDGFRβ it was 4.4 nM; in assay [2] (Homo sapiens, HUVEC) it was 0.18 nM. The inhibition at 0.05 µM in assay [1] (50 nM compound) was 100%. The compound further showed a Ki in assay [1] of 0.2 nM.

For `Cc1c(C(=O)NCCCO)c2ccc(Oc3ccnc4cc(C(=O)N5CC[C@@H](O)C5)sc34)cc2n1C` [Example 64, 6-[2-((R)-3-Hydroxy-pyrrolidine-1-carbonyl)-thieno[3,2-b]pyridin-7-yloxy]-1,2-dimethyl-1H-indole-3-carboxylic acid (3-hydroxy-propyl)-amide], the concentration for half-maximal inhibition (IC50) stood at 10000 nM with Huvec (Homo sapiens, HUVEC) and 10 nM in assay [2] (Homo sapiens, HUVEC). Further, the inhibition at 0.05 µM in assay [1] (50 nM compound) amounted to 64%. The compound further showed an inhibitory constant (Ki) in assay [1] of 11.8 nM.

As to `Cc1sc2cc(Oc3ccnc4cc(-c5nccn5C)sc34)ccc2c1C(=O)NCCCO` [Example 118, 2-Methyl-6-{[2-(1-methyl-1H-imidazol-2-yl)thieno[3,2-b]pyridin-7-yl]oxy}benzo[b]thiophene-3-carboxylic acid 3-hydroxypropylamide], the IC50 worked out at 736 nM with Huvec (Homo sapiens, HUVEC) and 0.9 nM in assay [2] (Homo sapiens, HUVEC). Besides, in assay [1] (50 nM compound), the inhibition at 0.05 µM is 84%. In addition, the Ki in assay [1] was determined as 1.2 nM.

Regarding `CO[C@@H]1CCN(C(=O)c2cc3nccc(Oc4ccc5c(C(=O)NC6CC6)c(C)oc5c4)c3s2)C1` [Example 89, 6-[2-(3-Methoxypyrrolidine-1-carbonyl)-thieno[3,2-b]pyridin-7-yloxy]-2-methyl-benzofuran-3-carboxylic acid cyclopropylamide], the half-maximal inhibitory concentration (IC50) was 5.2 nM with Huvec (Homo sapiens, HUVEC) and 250 nM on PDGFRβ. In assay [1] (50 nM compound), the inhibition at 0.05 µM was found to be 95%. The compound also registered a Ki in assay [1] of 0.419 nM.

Regarding `CCc1sc2cc(Oc3ccnc4cc(C(=O)N5CC[C@@H](O)C5)sc34)ccc2c1C(=O)NC` [Example 136, 2-Ethyl-6-[(2-{[(3R)-3-hydroxypyrrolidin-1-yl]carbonyl}thieno[3,2-b]pyridin-7-yl)oxy]benzo[b]thiophene-3-carboxylic acid methylamide], the half-maximal inhibitory concentration (IC50) on PDGFRβ was found to be 609 nM; in assay [2] (Homo sapiens, HUVEC), 10 nM. Moreover, in assay [1] (50 nM compound), the inhibition at 0.05 µM is 88%. The Ki in assay [1] is 1.17 nM.

With `CCc1oc2cc(Oc3ccnc4cc(C(=O)N5CC[C@@H](OC)C5)sc34)ccc2c1C(=O)NC` [Example 14, 6-(2-[3-methoxypyrrolidine-1-carbonyl]thieno[3,2-b]pyridin-7-yloxy)-2-ethylbenzofuran-3-carboxylic acid methylamide], the half-inhibitory concentration (IC50) in the assay with Huvec (Homo sapiens, HUVEC) was found to be 287 nM; in assay [2] (Homo sapiens, HUVEC), 9.4 nM. Besides, the inhibition at 0.05 µM in assay [1] (50 nM compound) is 81%. Moreover, in assay [1], the Ki is 1.46 nM.

Turning to `CNC(=O)c1c(C)[nH]c2cc(Oc3ccnc4cc(C(=O)N5CC[C@@H](O)C5)sc34)ccc12` [Example 24, 6-[2-(3-Hydroxy-pyrrolidine-1-carbonyl)-thieno[3,2-b]pyridin-7-yloxy]-2-methyl-1H-indole-3-carboxylic acid methylamide], the IC50 in the assay with Huvec (Homo sapiens, HUVEC) came out at 10000 nM; in assay [2] (Homo sapiens, HUVEC), 32 nM. Further, the inhibition at 0.05 µM in assay [1] (50 nM compound) turned out to be 69%. The Ki in assay [1] amounted to 4.2 nM.

Take `CNC(=O)c1c(C)n(C)c2cc(Oc3ccnc4cc(C(=O)N5CCC[C@H]5CO)sc34)ccc12` [Example 16, 6-[2-(2-Hydroxymethyl-pyrrolidine-1-carbonyl)-thieno[3,2-b]pyridin-7-yloxy]-1,2-dimethyl-1H-indole-3-carboxylic acid methylamide]: the half-inhibitory concentration (IC50) amounted to 1000 nM in the assay on Huvec (Homo sapiens, HUVEC) and 10 nM in assay [2] (Homo sapiens, HUVEC). Besides, the inhibition at 0.05 µM in assay [1] (50 nM compound) was 46%. Moreover, the inhibition constant (Ki) in assay [1] was 8.14 nM.

Take `CNC(=O)c1c(C)n(C)c2cc(Oc3ccnc4cc(-c5cncnc5)sc34)ccc12` [Example 39, 1,2-Dimethyl-6-(2-pyrimidin-5-yl-thieno[3,2-b]pyridin-7-yloxy)-1H-indole-3-carboxylic acid methylamide]: the 50% inhibitory concentration (IC50) at PDGFRβ is 61 nM; in assay [2] (Homo sapiens, HUVEC), 8.7 nM. Further, the inhibition at 0.05 µM in assay [1] (50 nM compound) amounted to 12%. Moreover, affinity in assay [1] was put at a Ki of 47 nM.

For `CO[C@@H]1CCN(C(=O)c2cc3nccc(Oc4ccc5c(C(=O)NCCO)c(C)sc5c4)c3s2)C1` [Example 123, 6-[(2-{[(3R)-3-Methoxypyrrolidin-1-yl]carbonyl}thieno[3,2-b]pyridin-7-yl)oxy]-2-methylbenzo[b]thiophene-3-carboxylic acid 2-hydroxyethylamide], the IC50 turned out to be 229 nM on PDGFRβ and 10 nM in assay [2] (Homo sapiens, HUVEC). Also, the inhibition at 0.05 µM in assay [1] (50 nM compound) was found to be 74%. Also, the affinity in assay [1], expressed as Ki, was 2.63 nM.

Take `CCc1sc2cc(Oc3ccnc4cc(C(=O)N5CCC5)sc34)ccc2c1C(=O)NC` [Example 138, 6-{[2-(Azetidin-1-ylcarbonyl)thieno[3,2-b]pyridin-7-yl]oxy}-2-ethylbenzo[b]thiophene-3-carboxylic acid methylamide]: the IC50 stood at 110 nM on PDGFRβ and 9.9 nM in assay [2] (Homo sapiens, HUVEC). Moreover, the inhibition at 0.05 µM in assay [1] (50 nM compound) came out at 85%. The compound also displayed an inhibition constant Ki in assay [1] of 0.78 nM.

For the compound `Cc1oc2cc(Oc3ccnc4ccsc34)ccc2c1C(=O)Nc1nnc(-c2ccccc2)s1` [Example 106, 2-Methyl-6-(thieno[3,2-b]pyridin-7-yloxy)-benzofuran-3-carboxylic acid (5-phenyl-[1,3,4]thiadiazol-2-yl)-amide], the half-maximal inhibitory concentration (IC50) in the assay with Huvec (Homo sapiens, HUVEC) was found to be 638 nM; in assay [2] (Homo sapiens, HUVEC) it was 10 nM. Moreover, the inhibition at 0.05 µM in assay [1] (50 nM compound) is 98%.
